Test results reported in patent US20040010001A1, “Methods and compositions for modulating cell proliferation and cell death” (priority 1999, published 2004).
Read-outs that look alike come from different tables or passages of the source.

Columns and labels:
[1] = test system: Human prostate PC3 tumor cells; experiment: aFGF/bFGF-induced resistance and reversal by suramin, sulforhodamine B assay; format: cell-based; conditions: for Resistance, Folds, aFGF 0.3 ng/ml + bFGF 1 ng/ml / Resistance, Folds, aFGF 1 ng/ml + bFGF 3 ng/ml: no suramin, relative to control
Protocol: The experimental conditions are described briefly below. […] Cell number was measured using the sulforhodamine B assay which measures the total protein concentration. […] The FGF-induced resistance was dependent on the FGF concentrations, with a higher resistance at higher FGF concentrations.

[2] = test system: Human prostate PC3 tumor cells; experiment: Drug treatment and extracellular bFGF (ELISA), LDH release, cell number; format: cell-based; conditions: for Extracellular LDH, % of control / Extracellular bFGF, % of control / Extracellular concentration bFGF / bFGF:LDH ratio: 72 hours
Protocol: The experimental conditions are described briefly below. […] The remaining cell number at the end of treatment was counted using a Coulter counter. The extracellular bFGF concentration was measured using ELISA. The release of lactate dehydrogenase (LDH) into the extracellular culture medium is indicative of cell death and gives a measure of the release of cellular content into the culture medium. If the increase in extracellular bFGF level is due to the release of bFGF upon cell death and lysis, the increase in bFGF will be accompanied by an increase in LDH in the same extent. This would result in an higher bFGF level and a constant bFGF-to-LDH ratio. On the other hand, an increase in extracellular bFGF due to an increase in bFGF production and release of bFGF from cells by processes other than cell lysis will result in an higher bFGF level and an higher bFGF-to-LDH ratio.

[3] = Homo sapiens, read-out: IC50, Control (drug treatment only, without FGF treatment), No suramin, drug 96 hours
[4] = Homo sapiens, read-out: IC50, aFGF 0.3 ng/ml + bFGF 1 ng/ml, No suramin, FGF pretreatment 96 hours, drug 96 hours
[5] = Homo sapiens, read-out: IC50, aFGF 1 ng/ml + bFGF 3 ng/ml, No suramin, FGF pretreatment 96 hours, drug 96 hours
[6] = read-out: IC50, Control (without FGF treatment), Suramin, 15 μM, drug 96 hours with 15 μM suramin
[7] = read-out: IC50, aFGF 0.3 ng/ml + bFGF 1 ng/ml, With suramin, FGF pretreatment 96 hours, drug 96 hours with 15 micromolar suramin
[8] = read-out: IC50, aFGF 1 ng/ml + bFGF 3 ng/ml, With suramin, FGF pretreatment 96 hours, drug 96 hours with 15 micromolar suramin
[9] = read-out: IC50, Control (drug treatment only, without FGF treatment), No suramin, drug 96 hours
[10] = read-out: IC50, aFGF 0.3 ng/ml + bFGF 1 ng/ml, No suramin, FGF pretreatment 96 hours, drug 96 hours
[11] = read-out: IC50, aFGF 1 ng/ml + bFGF 3 ng/ml, No suramin, FGF pretreatment 96 hours, drug 96 hours

Q: With `Nc1ncn([C@H]2C[C@H](O)[C@@H](CO)O2)c(=O)n1` [5-Aza 2′-deoxycytidine] as the molecule, how does the IC50 [1, 3] read?
A: 6.63 µM

Q: And the IC50 [1, 4]?
A: 14 µM

Q: And the IC50 [1, 5]?
A: 26.3 µM

Q: And the “Resistance, Folds, aFGF 0.3 ng/ml + bFGF 1 ng/ml” value [1]?
A: 2.12 Folds

Q: What about the “Resistance, Folds, aFGF 1 ng/ml + bFGF 3 ng/ml” value [1] of the same molecule?
A: 3.96 Folds

Q: What about the IC50 [1, 6] of the same molecule?
A: 6.14 µM

Q: And the IC50 [1, 7]?
A: 6.54 µM

Q: And the IC50 [1, 8]?
A: 6.39 µM

Q: How did the “Resistance, Folds, aFGF 0.3 ng/ml + bFGF 1 ng/ml” value [1] turn out when `N.N.[Cl][Pt][Cl]` [Cisplatin] was run?
A: 1.76 Folds

Q: What about the “Resistance, Folds, aFGF 1 ng/ml + bFGF 3 ng/ml” value [1] of the same molecule?
A: 3.69 Folds

Q: What about the IC50 [1, 9] of the same molecule?
A: 2.76 µM

Q: What about the IC50 [1, 6] of the same molecule?
A: 2.69 µM

Q: And the IC50 [1, 10]?
A: 4.85 µM

Q: What about the IC50 [1, 7] of the same molecule?
A: 3.09 µM

Q: And the IC50 [1, 11]?
A: 10.2 µM

Q: And the IC50 [1, 8]?
A: 3.01 µM

Q: What about the “Remaining cell number at 72 hours (% of control)” value ([2]; drug concentration 2000 NM) of the same molecule?
A: 86%

Q: And the “Remaining cell number at 72 hours × 10^6” value ([2]; drug concentration 2000 NM)?
A: 1.9 × 10^6

Q: What about the “Extracellular LDH, % of control” value ([2]; drug concentration 2000 NM) of the same molecule?
A: 169 % of control

Q: What about the “Extracellular bFGF, % of control” value ([2]; drug concentration 2000 NM) of the same molecule?
A: 267 % of control

Q: And the “Extracellular concentration bFGF” value ([2]; drug concentration 2000 NM)?
A: 5.87 pg/mL

Q: And the “bFGF:LDH ratio” value ([2]; drug concentration 2000 NM)?
A: 1.58

Q: And the “Remaining cell number at 72 hours (% of control)” value ([2]; drug concentration 6000 NM)?
A: 45%

Q: And the “Remaining cell number at 72 hours × 10^6” value ([2]; drug concentration 6000 NM)?
A: 1.0 × 10^6

Q: And the “Extracellular LDH, % of control” value ([2]; drug concentration 6000 NM)?
A: 534 % of control

Q: And the “Extracellular bFGF, % of control” value ([2]; drug concentration 6000 NM)?
A: 1561 % of control

Q: What about the “Extracellular concentration bFGF” value ([2]; drug concentration 6000 NM) of the same molecule?
A: 95.9 pg/mL

Q: And the “bFGF:LDH ratio” value ([2]; drug concentration 6000 NM)?
A: 2.92

Q: And the “Remaining cell number at 72 hours (% of control)” value ([2]; drug concentration 20000 NM)?
A: 18%

Q: What about the “Remaining cell number at 72 hours × 10^6” value ([2]; drug concentration 20000 NM) of the same molecule?
A: 0.4 × 10^6

Q: And the “Extracellular LDH, % of control” value ([2]; drug concentration 20000 NM)?
A: 563 % of control

Q: And the “Extracellular bFGF, % of control” value ([2]; drug concentration 20000 NM)?
A: 1641 % of control

Q: And the “Extracellular concentration bFGF” value ([2]; drug concentration 20000 NM)?
A: 101 pg/mL

Q: And the “bFGF:LDH ratio” value ([2]; drug concentration 20000 NM)?
A: 2.88

Q: What does the source list for `COc1cc(NS(C)(=O)=O)ccc1Nc1c2ccccc2nc2ccccc12` [Amsacrine]?
A: IC50 [1, 3]: 0.71 µM; IC50 [1, 4]: 1.32 µM; IC50 [1, 5]: 1.9 µM; Resistance, Folds, aFGF 0.3 ng/ml + bFGF 1 ng/ml [1]: 1.85 Folds; Resistance, Folds, aFGF 1 ng/ml + bFGF 3 ng/ml [1]: 2.66 Folds; IC50 [1, 6]: 0.68 µM; IC50 [1, 7]: 0.74 µM; IC50 [1, 8]: 0.67 µM

Q: With `OC[C@H]1O[C@@H](n2cnc3c2NC=NC[C@H]3O)C[C@@H]1O` [Pentostatin] as the molecule, how does the IC50 ([1]; Homo sapiens, 96 h, read-out: IC50, Control (drug treatment only, without FGF treatment), No suramin) read?
A: 336 µM

Q: With `N[C@H](C(=O)O)[C@@H]1CC(Cl)=NO1` [Acivicin] as the molecule, how does the IC50 [1, 3] read?
A: 1.58 µM

Q: And the IC50 [1, 4]?
A: 3.34 µM

Q: What about the IC50 [1, 5] of the same molecule?
A: 5.52 µM

Q: What about the “Resistance, Folds, aFGF 0.3 ng/ml + bFGF 1 ng/ml” value [1] of the same molecule?
A: 2.11 Folds

Q: And the “Resistance, Folds, aFGF 1 ng/ml + bFGF 3 ng/ml” value [1]?
A: 3.49 Folds

Q: And the IC50 [1, 6]?
A: 1.28 µM

Q: What about the IC50 [1, 7] of the same molecule?
A: 1.65 µM

Q: What about the IC50 [1, 8] of the same molecule?
A: 1.63 µM

Q: Which IC50 [1, 3] does the source give for `N[C@@H](CN(O)N=O)C(=O)O` [Alanosine] here?
A: 2.06 µM

Q: And the IC50 [1, 4]?
A: 4.18 µM

Q: And the IC50 [1, 5]?
A: 7.08 µM

Q: And the “Resistance, Folds, aFGF 0.3 ng/ml + bFGF 1 ng/ml” value [1]?
A: 2.03 Folds

Q: And the “Resistance, Folds, aFGF 1 ng/ml + bFGF 3 ng/ml” value [1]?
A: 3.44 Folds

Q: What about the IC50 [1, 6] of the same molecule?
A: 2.15 µM

Q: What about the IC50 [1, 7] of the same molecule?
A: 2.4 µM

Q: What about the IC50 [1, 8] of the same molecule?
A: 2.12 µM

Q: Which results are given for `Nc1ncn([C@@H]2O[C@H](CO)[C@@H](O)[C@H]2O)c(=O)n1` [5-Azacitidine]?
A: IC50 [1, 3]: 6.09 µM; IC50 [1, 4]: 13.8 µM; IC50 [1, 5]: 26.4 µM; Resistance, Folds, aFGF 0.3 ng/ml + bFGF 1 ng/ml [1]: 2.27 Folds; Resistance, Folds, aFGF 1 ng/ml + bFGF 3 ng/ml [1]: 4.33 Folds; IC50 [1, 6]: 6.94 µM; IC50 [1, 7]: 6.45 µM; IC50 [1, 8]: 7.32 µM

Q: Which “Resistance, Folds, aFGF 0.3 ng/ml + bFGF 1 ng/ml” value [1] does the source give for `Nc1ccn([C@@H]2O[C@H](CO)[C@@H](O)[C@@H]2O)c(=O)n1` [Cytarabine/Ara-C, Cytarabine] here?
A: 3.26 Folds

Q: What about the “Resistance, Folds, aFGF 1 ng/ml + bFGF 3 ng/ml” value [1] of the same molecule?
A: 8.41 Folds

Q: And the IC50 [1, 9]?
A: 0.39 µM

Q: What about the IC50 [1, 6] of the same molecule?
A: 0.46 µM

Q: And the IC50 [1, 10]?
A: 1.27 µM

Q: What about the IC50 [1, 7] of the same molecule?
A: 0.42 µM

Q: And the IC50 [1, 11]?
A: 3.26 µM

Q: What about the IC50 [1, 8] of the same molecule?
A: 0.45 µM
